From ChEMBL document CHEMBL3044772, “QSAR modeling of some substituted benzimidazole as Angotensin II AT1 receptor antagonist” (Med Chem Res, 2010)

Molecular target: T1, Type-1 angiotensin II receptor (Bos taurus, UniProt P25104)
T1 sequence (P25104 whole entry): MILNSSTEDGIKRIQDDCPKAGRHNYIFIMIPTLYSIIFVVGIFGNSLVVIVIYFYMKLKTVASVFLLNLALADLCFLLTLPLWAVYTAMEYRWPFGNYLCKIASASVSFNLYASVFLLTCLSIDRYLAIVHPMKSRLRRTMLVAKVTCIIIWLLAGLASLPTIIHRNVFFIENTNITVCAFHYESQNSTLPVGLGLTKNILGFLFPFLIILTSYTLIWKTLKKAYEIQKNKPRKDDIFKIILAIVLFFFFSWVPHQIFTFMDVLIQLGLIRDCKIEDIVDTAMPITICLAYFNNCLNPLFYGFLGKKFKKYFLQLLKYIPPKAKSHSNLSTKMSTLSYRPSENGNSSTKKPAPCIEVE
Assay: Displacement of [125I]angiotensin 2 from type-1 angiotensin 2 receptor in Bos taurus (bovine) adrenal cortical membrane

CCCCc1nc2cccc(COC)c2n1Cc1ccc(-c2ccccc2-c2nn[nH]n2)cc1
IC50 (read-out: IC50): 600 nM

CCCCc1nc2ccc(C)c(C(=O)OCC)c2n1Cc1ccc(-c2ccccc2-c2nnn[nH]2)cc1
IC50 (read-out: IC50): 910 nM

CCCCc1nc2ccc(C(=O)O)cc2n1Cc1ccc(-c2ccccc2-c2nn[nH]n2)cc1
IC50 (read-out: IC50): 9000 nM

CCCCc1nc2cc(C)cc(C(=O)O)c2n1Cc1ccc(-c2ccccc2-c2nn[nH]n2)cc1
IC50 (read-out: IC50): 1300 nM

CCCCc1nc2cc(Cl)cc(C(=O)OC)c2n1Cc1ccc(-c2ccccc2-c2nn[nH]n2)cc1
IC50 (read-out: IC50): 440 nM

CCCCc1nc2cc(C(=O)OC)ccc2n1Cc1ccc(-c2ccccc2-c2nn[nH]n2)cc1
IC50 (read-out: IC50): 740 nM

CCCCc1nc2ccccc2n1Cc1ccc(-c2ccccc2C(=O)O)cc1
IC50 (read-out: IC50): 1100 nM
IC50 (read-out: pIC50 (converted)): 110 nM

CCCCc1nc2cccc(O)c2n1Cc1ccc(-c2ccccc2-c2nn[nH]n2)cc1
IC50 (read-out: IC50): 1100 nM

CCCCc1nc2cccc(C(=O)O)c2n1Cc1ccc(-c2ccccc2-c2nnnn2C)cc1
IC50 (read-out: IC50): 3400 nM

CCCCc1nc2ccc(C)c(C(=O)O)c2n1Cc1ccc(-c2ccccc2-c2nn[nH]n2)cc1
IC50 (read-out: IC50): 340 nM
IC50 (read-out: pIC50 (converted)): 328 nM

CCCCc1nc2cccc(C(=O)OCC)c2n1Cc1ccc(-c2ccccc2-c2nn[nH]n2)cc1
IC50 (read-out: IC50): 1400 nM

CCCCc1nc2cc(OC)ccc2n1Cc1ccc(-c2ccccc2-c2nn[nH]n2)cc1
IC50 (read-out: IC50): 910 nM

CCCCc1nc2cc(C)cc(C(=O)OC)c2n1Cc1ccc(-c2ccccc2-c2nn[nH]n2)cc1
IC50 (read-out: IC50): 870 nM

CCCCc1nc2cccc(CN(C)C)c2n1Cc1ccc(-c2ccccc2-c2nn[nH]n2)cc1
IC50 (read-out: IC50): 2400 nM

CCCCc1nc2cccc(C)c2n1Cc1ccc(-c2ccccc2-c2nn[nH]n2)cc1
IC50 (read-out: IC50): 330 nM

CCCCc1nc2ccc(OC)cc2n1Cc1ccc(-c2ccccc2-c2nn[nH]n2)cc1
IC50 (read-out: IC50): 1100 nM

CCCCc1nc2cc(C(=O)O)ccc2n1Cc1ccc(-c2ccccc2-c2nn[nH]n2)cc1
IC50 (read-out: IC50): 5500 nM
IC50 (read-out: pIC50 (converted)): 5620 nM

CCCCc1nc2cccc(C(=O)OC)c2n1Cc1ccc(-c2ccccc2-c2nn[nH]n2)cc1
IC50 (read-out: IC50): 320 nM

CCCCc1nc2cccc(CC(=O)O)c2n1Cc1ccc(-c2ccccc2-c2nn[nH]n2)cc1
IC50 (read-out: IC50): 2600 nM
IC50 (read-out: pIC50 (converted)): 2820 nM

CCCCc1nc2c(C(=O)OC)cccc2n1Cc1ccc(-c2ccccc2-c2nn[nH]n2)cc1
IC50 (read-out: IC50): 7200 nM

CCCCc1nc2cccc(CC(=O)OCC)c2n1Cc1ccc(-c2ccccc2-c2nn[nH]n2)cc1
IC50 (read-out: IC50): 250 nM

CCCCc1nc2cccc(OC)c2n1Cc1ccc(-c2ccccc2-c2nn[nH]n2)cc1
IC50 (read-out: IC50): 2800 nM

CCCCc1nc2ccc(Cl)cc2n1Cc1ccc(-c2ccccc2-c2nn[nH]n2)cc1
IC50 (read-out: IC50): 3100 nM

CCCCc1nc2ccc(C(=O)OC)cc2n1Cc1ccc(-c2ccccc2-c2nn[nH]n2)cc1
IC50 (read-out: IC50): 440 nM

CCCCc1nc2cccc(C(=O)NC(C)C)c2n1Cc1ccc(-c2ccccc2-c2nn[nH]n2)cc1
IC50 (read-out: IC50): 540 nM

CCCCOC(=O)c1cccc2nc(CCCC)n(Cc3ccc(-c4ccccc4-c4nn[nH]n4)cc3)c12
IC50 (read-out: IC50): 1200 nM
IC50 (read-out: pIC50 (converted)): 1300 nM

CCCCc1nc2ccccc2n1Cc1ccc(-c2ccccc2-c2nn[nH]n2)cc1
IC50 (read-out: IC50): 900 nM

CCCCc1nc2cccc(C(=O)O)c2n1Cc1ccc(-c2ccccc2C(=O)O)cc1
IC50 (read-out: IC50): 660 nM

CCCCc1nc2cc(Cl)ccc2n1Cc1ccc(-c2ccccc2-c2nn[nH]n2)cc1
IC50 (read-out: IC50): 1500 nM

CCCCc1nc2cccc(CO)c2n1Cc1ccc(-c2ccccc2-c2nn[nH]n2)cc1
IC50 (read-out: IC50): 450 nM
